# Results taken from patent publication US11433081B2 (priority 2018, dated 2022).
# Tested on: Chronic Pain
# Details: human, in vivo, po
structure (smiles),measurement,value
COc1ccc2c3c1O[C@H]1C(=O)CC[C@@]4(O)[C@@H](C2)N(C)CC[C@]314 [Oxycodone],Pain level,3 /10
